Measurements taken from patent US11639350B2, “Heteroaryldihydropyrimidine derivatives and methods of treating hepatitis B infections” (Janssen Pharmaceutica NV, priority 2018, dated 2023).
Where two headings read alike, the source gives them in different places.

How the values were obtained:
HBV = HBV inhibitory activity: HBV DNA in the culture medium of HepG2.2.15 cells by q-PCR; format: cell-based; conditions: Hepatitis B virus, HepG2.2.15, 144 h
Procedure, shortened: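 HepG2.2.15 cells in 2% FBS medium, 40,000 per well, treated 6 days with compound (medium refreshed once), eight 3-fold dilutions from 10 μM top. HBV DNA extracted from culture medium and quantified by q-PCR; EC50 averaged over repeats. Cytotoxicity run in parallel at 5,000 cells per well, top 100 μM, giving CC50.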

[1] = Cytotoxicity determination in HepG2.2.15 cells (CCK-8); format: cell-based; conditions: human, 6 days of compound treatment, CCK-8, highest concentration 100 μM
Procedure, shortened: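 HepG2.2.15 cells seeded at 5,000 cells/well in 2% FBS medium, incubated overnight at 37° C., then treated 6 days with compounds (8 points, 3-fold dilutions, top 100 μM), medium refreshed once midway. CCK-8 added for 2.5 h; A450 read against 630 nm reference; CC50 calculated, averaged over repeats.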

[2] = HepG2.2.15 cells, 6 days of compound treatment, HBV DNA in culture medium by q-PCR, highest concentration 10 μM, read-out: EC50

Row | Structure (SMILES) | EC50 (HBV; [2]) [µM] | CC50 at 6 days [1] [µM] | EC50 (HBV) [µM]
1 | CCOC(=O)C1=C(C2CCN(S(=O)(=O)c3cnn(CCCCCC(=O)O)c3)CC2)NC(c2nccs2)=NC1c1ccc(F)c(F)c1Cl (stereo not drawn) [Compound 462, 6-(4-((4-(6-(2-Chloro-3,4-difluorophenyl)-5-(ethoxycarbonyl)-2-(thiazol-2-yl)-3,6-dihydropyrimidin-4-yl)piperidin-1-yl)sulfonyl)-1H-pyrazol-1-yl)hexanoic Acid] | 0.024 | 6.6 | –
2 | CCOC(=O)C1=C(C2CCN(S(=O)(=O)c3cnn(CCCCC(=O)O)c3)CC2)NC(c2nccs2)=NC1c1ccc(F)c(F)c1Cl (stereo not drawn) [Compound 463, 5-(4-((4-(6-(2-Chloro-3,4-difluorophenyl)-5-(ethoxycarbonyl)-2-(thiazol-2-yl)-3,6-dihydropyrimidin-4-yl)piperidin-1-yl)sulfonyl)-1H-pyrazol-1-yl)pentanoic acid] | 0.031 | 12.2 | –
3 | COCCOCCS(=O)(=O)N1CCC(C2=C(C(=O)OC)C(c3ccc(F)cc3Cl)N=C(c3nccs3)N2)CC1 (stereo not drawn) [Compound 464, Methyl 4-(2-chloro-4-fluorophenyl)-6-(1-((2-(2methoxyethoxy)ethyl)sulfonyl)piperidin-4-yl)-2-(thiazol-2-yl)-1,4-dihydropyrimidine-5-carboxylate] | < 0.0046 | 29.4 | –
4 | COC(=O)C1=C(C2CCN(S(=O)(=O)c3cnn(Cc4ncco4)c3)CC2)NC(c2nccs2)=NC1c1ccc(F)c(F)c1Cl (stereo not drawn) [Compound 465, Methyl 4-(2-chloro-3,4-difluorophenyl)-6-(1-((1-(oxazol-2-ylmethyl)-1H-pyrazol-4-yl)sulfonyl)piperidin-4-yl)-2-(thiazol-2-yl)-1,4-dihydropyrimidine-5-carboxylate] | 0.009 | 35.2 | –
5 | COC(=O)C1=C(C2CCN(S(=O)(=O)CCOCCOCCO)CC2)NC(c2nccs2)=NC1c1ccc(F)cc1Cl (stereo not drawn) [Compound 468, Methyl 4-(2-chloro-4-fluorophenyl)-6-(1-((2-(2-(2-hydroxyethoxy)ethoxy)ethyl)sulfonyl)piperidin-4-yl)-2-(thiazol-2-yl)-1,4-dihydropyrimidine-5-carboxylate] | – | 42.9 | 0.009
6 | COC(=O)C1=C(C2CCN(S(=O)(=O)c3cnn([C@H]4C[C@H](C(=O)O)C4)c3)CC2)NC(c2nccs2)=NC1c1ccc(F)cc1Cl (stereo partly drawn) [Compound 470, (trans)-3-(4-((4-(6-(2-Chloro-4-fluorophenyl)-5-(methoxycarbonyl)-2-(thiazol-2-yl)-3,6-dihydropyrimidin-4-yl)piperidin-1-yl)sulfonyl)-1H-pyrazol-1-yl)cyclobutanecarboxylic Acid] | 0.056 | 20.1 | –
7 | COC(=O)C1=C(C2CCN(S(=O)(=O)c3cnn(CCCCC(=O)O)c3)CC2)NC(c2nccs2)=NC1c1ccc(F)cc1Cl (stereo not drawn) [Compound 471, 5-(4-((4-(6-(2-Chloro-4-fluorophenyl)-5-(methoxycarbonyl)-2-(thiazol-2-yl)-3,6-dihydropyrimidin-4-yl)piperidin-1-yl)sulfonyl)-1H-pyrazol-1-yl)pentanoic Acid] | 0.053 | 32.3 | –
8 | COC(=O)C1=C(C2CCN(S(=O)(=O)CCO)CC2)NC(c2nccs2)=NC1c1ccc(F)c(F)c1Cl (stereo not drawn) [Compound 474, methyl 4-(2-chloro-3,4-difluorophenyl)-6-(1-((2-hydroxyethyl)sulfonyl)piperidin-4-yl)-2-(thiazol-2-yl)-1,4-dihydropyrimidine-5-carboxylate] | 0.007 | 18.3 | –
9 | COC(=O)C1=C(C2CCN(S(=O)(=O)C3CCC(CC(=O)O)CC3)CC2)NC(c2nccs2)=NC1c1ccc(F)c(F)c1Cl (stereo not drawn) [Compound 478, 2-(4-((4-(6-(2-Chloro-3,4-difluorophenyl)-5-(methoxycarbonyl)-2-(thiazol-2-yl)-3,6-dihydropyrimidin-4-yl)piperidin-1-yl)sulfonyl)cyclohexyl)acetic Acid] | 0.006 | 23.4 | –
